From patent publication US4183848A, “Analgesic polypeptide” (American Home Products Corporation, priority 1977, dated 1980)
Where a SMILES comes first, the peptide text is derived from it. [ ]: non-standard residue; d: D form. Aib = CC(C)(N)C(=O)O

Legend:
opiate receptor = conditions: brain homogenates; cited from earlier work
rats = conditions: injection in the brain ventricle in rats; fully reversible by naloxone; cited from earlier work
[1] = peripheral administration; cited from earlier work
mouse vas deferens = conditions: cited from earlier work
guinea pig ileum = conditions: cited from earlier work
rat tail flick test = rat tail flick test (method of D-Amour and Smith), analgesic activity; type: in vivo
From the text: The representative polypeptide of this invention Tyr-D-Ala-Gly-Phe-2-MeAla-NH2, gave the following results in the reference standard rat tail flick test: […]

[2] = intracerebroventricular administration; cited from earlier work

In the case of “H-Tyr-Gly-Gly-Phe-Leu-OH [leucine-enkephalin]”, the “inhibition of stereospecific receptor binding of 3H-naloxone” value (opiate receptor) is listed as “inhibit”, the analgesia (rats) is listed as “profound analgesia” and the “activity when administered peripherally” value [1] is listed as “inactive”. For the same compound, the “block of electrically evoked contractions” value (“block” below) (mouse vas deferens) was “mimic the ability of morphine to block electrically evoked contractions” and the “block” value (guinea pig ileum) was “mimic the ability of morphine to block electrically evoked contractions”.
In the case of `CC(=O)O.C[C@@H](NC(=O)[C@@H](N)Cc1ccc(O)cc1)C(=O)NCC(=O)N[C@@H](Cc1ccccc1)C(=O)NC(C)(C)C(N)=O` [Tyr-D-Ala-Gly-Phe-2-MeAla-NH2, L-Tyrosyl-D-Alanylglycyl-L-Phenylalanyl-2-Methylalaninamide acetate] (H-Y[dA]GF[Aib]-NH2), the “No. showing analgesia/No. tested” value (rat tail flick test; intravenous 1.0 milligram/kilogram, 15 minutes after administration) was 6/6, the “No. showing analgesia/No. tested” value (rat tail flick test; intravenous 1.0 milligram/kilogram, 30 minutes after administration) was 4/6 and the “No. showing analgesia/No. tested” value (rat tail flick test; intravenous 1.0 milligram/kilogram, 60 minutes after administration) was 3/6. The “No. showing analgesia/No. tested” value (rat tail flick test; intravenous 2.5 milligram/kilogram, 15 minutes after administration) was 5/6, the “No. showing analgesia/No. tested” value (rat tail flick test; intravenous 2.5 milligram/kilogram, 30 minutes after administration) was 5/6 and the “No. showing analgesia/No. tested” value (rat tail flick test; intravenous 2.5 milligram/kilogram, 60 minutes after administration) was 2/6. For the same compound, the “No. showing analgesia/No. tested” value (rat tail flick test; intravenous 5.0 milligram/kilogram, 15 minutes after administration) was 5/5, the “No. showing analgesia/No. tested” value (rat tail flick test; intravenous 5.0 milligram/kilogram, 30 minutes after administration) was 4/5 and the “No. showing analgesia/No. tested” value (rat tail flick test; intravenous 5.0 milligram/kilogram, 60 minutes after administration) was 2/5. The “No. showing analgesia/No. tested” value (rat tail flick test; intravenous .5 milligram/kilogram, 15 minutes after administration) was 0/6, the “No. showing analgesia/No. tested” value (rat tail flick test; intravenous .5 milligram/kilogram, 30 minutes after administration) was 1/6 and the “No. showing analgesia/No. tested” value (rat tail flick test; intravenous .5 milligram/kilogram, 60 minutes after administration) was 1/6. The “No. showing analgesia/No. tested” value (rat tail flick test; subcutaneous 5.0 milligram/kilogram, 30 minutes after administration) was 3/6, the “No. showing analgesia/No. tested” value (rat tail flick test; subcutaneous 5.0 milligram/kilogram, 60 minutes after administration) was 1/6 and the “No. showing analgesia/No. tested” value (rat tail flick test; subcutaneous 5.0 milligram/kilogram, 90 minutes after administration) was 2/6. For the same compound, the “No. showing analgesia/No. tested” value (rat tail flick test; subcutaneous 5.0 milligram/kilogram, 120 minutes after administration) was 0/6, the “No. showing analgesia/No. tested” value (rat tail flick test; subcutaneous 10.0 milligram/kilogram, 30 minutes after administration) was 6/6 and the “No. showing analgesia/No. tested” value (rat tail flick test; subcutaneous 10.0 milligram/kilogram, 60 minutes after administration) was 5/6. The “No. showing analgesia/No. tested” value (rat tail flick test; subcutaneous 10.0 milligram/kilogram, 90 minutes after administration) was 2/6 and the “No. showing analgesia/No. tested” value (rat tail flick test; subcutaneous 10.0 milligram/kilogram, 120 minutes after administration) was 1/6.
For “H-Tyr-Gly-Gly-Phe-Met-OH [methionine-enkephalin]”, the “inhibition of stereospecific receptor binding of 3H-naloxone” value (opiate receptor) is given as “inhibit”, the analgesia (rats) is given as “profound analgesia” and the “activity when administered peripherally” value [1] is given as “inactive”. For the same compound, the “block” value (mouse vas deferens) was “mimic the ability of morphine to block electrically evoked contractions” and the “block” value (guinea pig ileum) was “mimic the ability of morphine to block electrically evoked contractions”.
In the case of Tyr-D-Ala-Gly-Phe-D-Leu, the “activity when administered intracerebroventricularly” value [2] is given as “activity”.
